Measured values from paper PMC12013614 (RSC Advances, 2025).
Marks after values point to notes of the source that are not given here.

Legend:
BAX = assay: qRT-PCR gene expression, BAX; type: cell-based; details: MDA-231 cells; 21.68 μM; control set to 1; mean ± SEM
BAX/Bcl-2 ratio = type: cell-based; details: MDA-231 cells; 21.68 μM; control set to 1
MDA-MB-231 cells [1] = assay: Cell cycle analysis, PI flow cytometry; type: cell-based; details: 21.68 µM, 48 h
VEGFR-2 = VEGFR-2 (Homo sapiens, UniProt P35968); assay: In vitro VEGFR-2 kinase inhibition; type: biochemical
MDA-MB-231 cells [2] = assay: Apoptosis analysis, Annexin V-FITC/PI flow cytometry; type: cell-based
caspase-8 = assay: qRT-PCR gene expression, caspase-8; type: cell-based; details: MDA-231 cells; 21.68 μM; control set to 1; mean ± SEM
MDA-231 cells = assay: Cell migration and wound healing assay; type: cell-based; details: 11 μM (0.5 IC50), untreated control 58.95
Bcl-2 = assay: qRT-PCR gene expression, Bcl-2; type: cell-based; details: MDA-231 cells; 21.68 μM; control set to 1; mean ± SEM
caspase-9 = assay: qRT-PCR gene expression, caspase-9; type: cell-based; details: MDA-231 cells; 21.68 μM; control set to 1; mean ± SEM

VEGFR-2, sequence (P35968 20-1356): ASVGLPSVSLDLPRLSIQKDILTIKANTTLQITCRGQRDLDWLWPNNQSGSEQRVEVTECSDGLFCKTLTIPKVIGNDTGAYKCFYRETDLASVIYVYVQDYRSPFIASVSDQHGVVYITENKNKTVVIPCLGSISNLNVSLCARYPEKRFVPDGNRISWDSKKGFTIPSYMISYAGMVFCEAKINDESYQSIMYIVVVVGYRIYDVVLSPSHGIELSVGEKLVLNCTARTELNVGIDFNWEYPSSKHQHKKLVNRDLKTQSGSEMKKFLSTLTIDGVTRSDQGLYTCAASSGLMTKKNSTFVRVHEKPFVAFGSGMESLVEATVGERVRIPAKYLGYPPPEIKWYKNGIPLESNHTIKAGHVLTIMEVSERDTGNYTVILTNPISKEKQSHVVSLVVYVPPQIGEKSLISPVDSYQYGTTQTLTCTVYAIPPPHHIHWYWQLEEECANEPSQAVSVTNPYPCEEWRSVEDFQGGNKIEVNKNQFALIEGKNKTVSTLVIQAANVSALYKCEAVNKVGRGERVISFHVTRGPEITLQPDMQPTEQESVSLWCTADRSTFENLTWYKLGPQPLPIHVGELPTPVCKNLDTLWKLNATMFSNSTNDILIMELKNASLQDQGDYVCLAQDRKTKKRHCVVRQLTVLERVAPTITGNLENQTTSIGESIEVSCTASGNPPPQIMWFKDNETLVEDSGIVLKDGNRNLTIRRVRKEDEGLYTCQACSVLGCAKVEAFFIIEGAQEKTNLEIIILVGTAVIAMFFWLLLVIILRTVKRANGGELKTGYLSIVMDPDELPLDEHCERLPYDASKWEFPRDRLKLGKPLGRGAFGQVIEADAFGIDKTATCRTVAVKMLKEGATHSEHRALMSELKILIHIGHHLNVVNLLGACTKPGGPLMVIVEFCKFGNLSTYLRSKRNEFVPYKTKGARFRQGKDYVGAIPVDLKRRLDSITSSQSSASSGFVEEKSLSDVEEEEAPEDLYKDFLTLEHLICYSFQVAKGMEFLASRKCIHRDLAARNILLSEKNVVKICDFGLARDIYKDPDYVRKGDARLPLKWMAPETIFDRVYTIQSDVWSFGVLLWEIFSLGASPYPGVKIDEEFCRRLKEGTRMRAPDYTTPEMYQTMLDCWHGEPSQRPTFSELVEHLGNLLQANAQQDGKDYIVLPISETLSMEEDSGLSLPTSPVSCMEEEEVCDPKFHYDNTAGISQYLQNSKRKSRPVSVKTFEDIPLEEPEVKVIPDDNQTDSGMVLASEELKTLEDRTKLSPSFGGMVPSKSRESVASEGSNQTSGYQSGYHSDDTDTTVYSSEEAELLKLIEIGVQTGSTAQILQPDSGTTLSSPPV

## COc1cccc(NC(=O)Nc2ccc(Oc3nc4ccccc4n4cnnc34)cc2)c1 [11d, 1-(4-([1,2,4]Triazolo[4,3-a]quinoxalin-4-yloxy)phenyl)-3-(3-methoxyphenyl)urea]
BAX
  Gene expression (fold change), BAX: 5.48 ± 0.45 ^a fold change
BAX/Bcl-2 ratio
  Gene expression (fold change), BAX/Bcl-2 ratio: 16.11 ± 1.01 fold change
MDA-MB-231 cells [1]; untreated 10.59
  Cell cycle distribution (%), % G2/M: 3.74 ^a %
MDA-MB-231 cells [1]; untreated 19.48
  Cell cycle distribution (%), % sub-G1: 15.75%
MDA-MB-231 cells [1]; untreated 24.95
  Cell cycle distribution (%), % S: 16.45 ^a %
MDA-MB-231 cells [1]; untreated 44.98
  Cell cycle distribution (%), % G1: 64.06 ^a %
VEGFR-2
  IC50: 62.3 ± 2.77 nM
MDA-MB-231 cells [2]; Homo sapiens, MDA-MB-231, 48 h, read-out: Viable (left bottom)
  viability at 21.68 µM: 20.2%
MDA-MB-231 cells [2]; MDA-MB-231, 21.68 µM, 48 h, untreated 0.32
  Necrosis (left top): 1.91 ^a %
MDA-MB-231 cells [2]; MDA-MB-231, 21.68 µM, 48 h, untreated 0.45
  Apoptosis, Late (right top): 31.49 ^a %
MDA-MB-231 cells [2]; MDA-MB-231, 21.68 µM, 48 h, untreated 3.84
  Apoptosis, Early (right bottom): 46.43 ^a %
caspase-8
  Gene expression (fold change), Caspases-8: 4.15 ± 0.48 ^a fold change
MDA-231 cells
  Quantitative closure (%) for scratched assay after 48 h: 27.51%
Bcl-2
  Gene expression (fold change), Bcl-2: 0.34 ± 0.01 ^a fold change
caspase-9
  Gene expression (fold change), Caspases-9: 5.58 ± 0.40 ^a fold change
